Measurements from patent publication US20110288036A1, “Methods for Treating or Preventing Vascular Graft Failure” (priority 2010, published 2011).

Tests used:
[1] = system: human saphenous vein (HSV); assay: Muscle bath: sodium nitroprusside-induced relaxation of human saphenous vein; type: cell-based; details: 50 or 100 μM pretreatment; data not shown
Method: De-identified, discarded segments of human saphenous vein (HSV) were collected from consented patients undergoing coronary artery or peripheral vascular bypass surgeries. HSV segments were stored in a saline solution until the end of the surgical procedure, at which time they were placed in cold transplant harvest buffer (100 mM potassium lactobionate, 25 mM KH2PO4, 5 mM MgSO4, 30 mM Raffinose, 5 mM Adenosine, 3 mM Glutathione, 1 mM Allopurinol, 50 g/L Hydroxyethyl starch, pH 7.4). The vessels were used within 24 hours of harvest. Using sterile technique, HSV segments were transferred to a 60-mm Petri dish under a sterile hood. The edges (0.5 mm) of each segment were removed with a blade and excess adventitial tissue and fat removed with minimal manipulation. HSV segments were cut into consecutive rings of approximately 1.0 mm in width to be utilized for organ culture or muscle bath experiments. Two rings from each segment were immediately fixed in 10% formalin at 37° C. for 30 min to obtain pre-culture intimal thickening measurements.
In preparation for testing vein segment functional viability, HSV rings were weighed and their lengths recorded. To focus on smooth muscle responses, the endothelium was mechanically denuded by rolling the luminal surface of each ring at the tip of a fine vascular forceps before suspension in a muscle bath containing a bicarbonate buffer (120 mM NaCl, 4.7 mM KCl, 1.0 mM MgSO4, 1.0 mM NaH2PO4, 10 mM glucose, 1.5 mM CaCl2, and 25 mM […], pH 7.4) equilibrated with 95% O2 and 5% CO2 at 37° C. The rings were stretched and the length progressively adjusted until maximal tension was obtained. […] Rings were maintained at a resting tension of 1 g, which produces maximal responses to contractile agonists as previously determined, and equilibrated for 2 hours in buffer. […]
HSV rings were first contracted with 110 mM KCl (with equimolar replacement of NaCl in bicarbonate buffer) and the generated force was measured. […] Rings were relaxed with a cumulative log dose of sodium nitroprusside (SNP), a nitric oxide donor, and the force generated was recorded. […] Rings were then incubated with either buffer alone or buffer plus 100 μM of MMI-0100 ([…] (SEQ ID NO: 1)) for 2 hours, followed by treatment with the same doses of PE and SNP, and the forces generated again recorded. Measured force was normalized for ring weight and length and percent relaxation was calculated; force generated with 10^−6 M of PE was set as 0% relaxation.
The enhancing effect of MMI-0100 ([…]; SEQ ID NO: 1) on smooth muscle relaxation was examined by pre-treating harvested human saphenous vein (HSV) with MMI-0100 ([…]; SEQ ID NO: 1) before SNP treatment. […] Percentage of relaxation at 0, 0.01, 0.1, and 1.0 μM of SNP was measured. […]

[2] = system: immortalized human pleural mesothelial cells (ATCC CRL-9444); assay: IL-6 ELISA in TNF-α-stimulated mesothelial cells; type: cell-based
Method: Expression of inflammatory cytokines was induced by applying 1 or 10 ng/ml of TNF-α to cultured mesothelial cells. Briefly, immortalized human pleural mesothelial cells (ATCC CRL-9444) were grown in Medium199 with Earle's BSS, 0.75 mM L-glutamine (Mediatech Inc., Manassas, Va.), 1.25 g/l sodium bicarbonate (Sigma), 3.3 nM epidermal growth factor (EGF) (MBL International, Woburn, Mass.), 40 nM hydrocortisone (Sigma), 870 nM insulin (MBL International), 20 mM HEPES (Sigma), trace elements mixture B (Mediatech Inc., Waltham, Mass.), 10% fetal bovine serum (FBS) (Hyclone), and 1% penicillin/streptomycin (Mediatech Inc., Waltham, Mass.). […] Human mesothelial cells were treated with two different concentrations (1 and 10 ng/mL) of TNF-α for 2, 6, 12, and 24 hours (data not shown). […] Without TNF-α stimulation, mesothelial cells made negligible amounts of IL-6. […] In subsequent experiments designed to determine whether the MMI-0100 peptide ([…]; SEQ ID NO: 1) could reduce TNF-α induced IL-6 expression, both 1 and 10 ng/mL of TNF-α were selected as stimuli. 10 ng/mL of TNF-α is regarded as more physiologically relevant for mesothelial cells.
Prior to cytokine and/or inhibitor treatment, cells were allowed to acclimate in serum-free media consisting of only Medium199 with Earle's BSS, 0.75 mM L-glutamine, 1.25 g/l sodium bicarbonate, 20 mM HEPES, trace elements mixture B (Mediatech Inc., Waltham, Mass.), and 1% penicillin/streptomycin (Mediatech Inc., Waltham, Mass.) for 24 hours. […] Average concentration of IL-6 (pg/ml per 10^5 cells) at each time was determined by cytokine-specific ELISA.

MK2 = details: known small molecule inhibitor of MK2; ATP competitive; cited from earlier work
CaMKIV = CaMKIV (Homo sapiens, UniProt Q16566); details: AIP 1 μM; cited from earlier work
PKC = details: AIP 1 μM; cited from earlier work
[3] = system: Ca2+/calmodulin-dependent protein kinase II (CaMKII); details: cited from earlier work
PKA = details: AIP 1 μM; cited from earlier work

Sequence of CaMKIV (Q16566 whole entry, species assumed): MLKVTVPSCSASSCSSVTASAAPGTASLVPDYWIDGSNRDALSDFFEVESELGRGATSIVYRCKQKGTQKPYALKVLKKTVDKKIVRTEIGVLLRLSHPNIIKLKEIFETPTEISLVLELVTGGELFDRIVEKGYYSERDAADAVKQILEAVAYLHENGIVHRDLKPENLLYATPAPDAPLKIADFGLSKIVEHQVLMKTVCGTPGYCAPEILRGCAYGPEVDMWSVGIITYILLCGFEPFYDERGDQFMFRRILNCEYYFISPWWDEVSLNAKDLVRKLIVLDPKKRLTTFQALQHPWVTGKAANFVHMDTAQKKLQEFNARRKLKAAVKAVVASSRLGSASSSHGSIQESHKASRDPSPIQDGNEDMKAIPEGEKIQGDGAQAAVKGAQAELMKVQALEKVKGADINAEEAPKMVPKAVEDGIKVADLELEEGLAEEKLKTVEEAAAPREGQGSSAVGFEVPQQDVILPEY

YARAAARQARA (mammal) [PTD peptide, control peptide (transduction domain, PTD peptide), reference compound]
relaxation response vs untreated control [1]: no significant difference in relaxation response

CC(=O)c1c(O)c(C)c(O)c(Cc2c(O)c3c(c(C(=O)/C=C/c4ccccc4)c2O)OC(C)(C)C=C3)c1O [Rottlerin, reference compound]
IL-6 expression ([2]; TNF-α 1 ng/mL, 6 hrs): significantly increased IL-6 expression above that induced by TNF-α alone
IL-6 expression ([2]; TNF-α 1 ng/mL, MMI-0100 1000 or 3000 μM, 6, 12, 24 hours): ineffective in reducing IL-6 expression
IL-6 expression ([2]; TNF-α 10 ng/mL, 6, 12, 24 hours): reduced IL-6 expression only at a higher dose (1 μM) and only at twenty-four hours after treatment
IC50 (MK2): 5 µM

autocamtide-2 related inhibitory peptide [AIP]
CaMKIV activity (CaMKIV): not affected
PKC activity (PKC): not affected
CaMKII activity ([3]; AIP 1 μM): inhibited completely
IC50 [3]: 0.1 µM
PKA activity (PKA): not affected
